Measured values: PubChem BioAssay (NCI)
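48-hour exposure; five concentrations; linearly interpolated endpoints. Here, GI50 denotes the concentration required for 50% inhibition of growth. TGI: total growth inhibition.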

How the values were obtained:
Assay in all cases: NCI-60 cell line screen, 48 h
[1] = test system: IGROV1 ovarian
[2] = test system: HL-60(TB) leukemia
[3] = test system: MDA-MB-435
[4] = test system: SW-620 colon
[5] = test system: 786-0 renal
[6] = test system: DU-145 prostate
[7] = test system: MCF7 breast
[8] = test system: HCC-2998 colon
[9] = test system: SF-539 CNS
[10] = test system: KM12 colon
[11] = test system: HT29 colon
[12] = test system: HOP-62 NSCLC
[13] = test system: NCI-H23 lung
[14] = test system: SK-MEL-5 melanoma
[15] = test system: HS 578T breast
[16] = test system: SN12C renal
[17] = test system: SK-MEL-2 melanoma
[18] = test system: EKVX NSCLC
[19] = test system: NCI/ADR-RES ovarian
[20] = test system: MOLT-4 leukemia
[21] = test system: K-562 leukemia
[22] = test system: OVCAR-4 ovarian
[23] = test system: SR leukemia
[24] = test system: RPMI-8226 leukemia
[25] = test system: SF-268 CNS
[26] = test system: SK-MEL-28 melanoma
[27] = test system: A498 renal
[28] = test system: BT-549 breast
[29] = test system: OVCAR-8 ovarian
[30] = test system: ACHN renal
[31] = test system: MDA-MB-231 breast
[32] = test system: HCT-116 colon
[33] = test system: HOP-92 NSCLC
[34] = test system: RXF 393 renal
[35] = test system: T-47D breast
[36] = test system: LOX IMVI melanoma
[37] = test system: UACC-62 melanoma
[38] = test system: CAKI-1 renal
[39] = test system: PC-3 prostate
[40] = test system: COLO 205 colon
[41] = test system: TK-10 renal
[42] = test system: OVCAR-3 ovarian
[43] = test system: HCT-15 colon
[44] = test system: SK-OV-3 ovarian
[45] = test system: NCI-H460 lung
[46] = test system: NCI-H226 lung
[47] = test system: CCRF-CEM leukemia
[48] = test system: OVCAR-5 ovarian
[49] = test system: M14 melanoma
[50] = test system: A549 NSCLC
[51] = test system: SNB-75 CNS
[52] = test system: NCI-H522 lung
[53] = test system: SNB-19 CNS
[54] = test system: U251 CNS
[55] = test system: UACC-257 melanoma
[56] = test system: UO-31 renal
[57] = test system: MALME-3M melanoma
[58] = test system: SF-295 CNS

COc1ccc(C2CC(c3cc(OC)c(OC)c(OC)c3)=NO2)cc1OCCCCOc1cc2c(cc1OC)C(=O)N1CCC[C@H]1C=N2 (some centres undefined)
GI50 [1]: 1.57 µM
TGI [1]: 3.06 µM
GI50 [2]: 1.9 µM
TGI [2]: 4.54 µM
GI50 [3]: 3.54 µM
TGI [3]: > 100 µM
GI50 [4]: 1.55 µM
TGI [4]: 3.15 µM
GI50 [5]: 1.57 µM
TGI [5]: 2.99 µM
GI50 [6]: 2.48 µM
TGI [6]: 7.43 µM
GI50 [7]: 1.75 µM
TGI [7]: 12.3 µM
GI50 [8]: 1.58 µM
TGI [8]: 3.04 µM
GI50 [9]: 1.8 µM
TGI [9]: 3.46 µM
GI50 [10]: 1.74 µM
TGI [10]: 3.32 µM
GI50 [11]: 2.75 µM
TGI [11]: 8.38 µM
GI50 [12]: 1.68 µM
TGI [12]: 3.43 µM
GI50 [13]: 1.83 µM
TGI [13]: 3.5 µM
GI50 [14]: 1.47 µM
TGI [14]: 2.79 µM
GI50 [15]: 1.1 µM
TGI [15]: 3.82 µM
GI50 [16]: 1.58 µM
TGI [16]: 3.31 µM
GI50 [17]: 2.03 µM
TGI [17]: 4.8 µM
GI50 [18]: 3.68 µM
TGI [18]: 25 µM
GI50 [19]: 6.95 µM
TGI [19]: 37.5 µM
GI50 [20]: 1.85 µM
TGI [20]: 4.61 µM
GI50 [21]: 1.26 µM
TGI [21]: 6.74 µM
GI50 [22]: 2.07 µM
TGI [22]: 5.04 µM
GI50 [23]: 1.12 µM
TGI [23]: 3.26 µM
GI50 [24]: 1.43 µM
TGI [24]: 4.31 µM
GI50 [25]: 1.89 µM
TGI [25]: 4.16 µM
GI50 [26]: 2.07 µM
TGI [26]: 4.1 µM
GI50 [27]: 1.72 µM
TGI [27]: 3.22 µM
GI50 [28]: 1.23 µM
TGI [28]: 3.54 µM
GI50 [29]: 2.55 µM
TGI [29]: 7.74 µM
GI50 [30]: 2.41 µM
TGI [30]: 5.71 µM
GI50 [31]: 1.15 µM
TGI [31]: 2.61 µM
GI50 [32]: 1.7 µM
TGI [32]: 3.89 µM
GI50 [33]: 2.47 µM
TGI [33]: 10.3 µM
GI50 [34]: 1.39 µM
TGI [34]: 2.72 µM
GI50 [35]: 1.31 µM
TGI [35]: 4.11 µM
GI50 [36]: 1.47 µM
TGI [36]: 2.84 µM
GI50 [37]: 1.52 µM
TGI [37]: 2.85 µM
GI50 [38]: 3.09 µM
TGI [38]: > 100 µM
GI50 [39]: 0.585 µM
TGI [39]: 3.04 µM
GI50 [40]: 1.96 µM
TGI [40]: 4.04 µM
GI50 [41]: 3.51 µM
TGI [41]: 9.41 µM
GI50 [42]: 1.94 µM
TGI [42]: 3.96 µM
GI50 [43]: 2.27 µM
TGI [43]: 5.54 µM
GI50 [44]: 3.37 µM
TGI [44]: 9.46 µM
GI50 [45]: 1.85 µM
TGI [45]: 4 µM
GI50 [46]: 1.67 µM
TGI [46]: 3.44 µM
GI50 [47]: 1.41 µM
TGI [47]: 4.27 µM
GI50 [48]: 3.13 µM
TGI [48]: 8.34 µM
GI50 [49]: 1.73 µM
TGI [49]: 3.45 µM
GI50 [50]: 2.33 µM
TGI [50]: 5.68 µM
GI50 [51]: 1.71 µM
TGI [51]: 3.29 µM
GI50 [52]: 0.61 µM
TGI [52]: 2.28 µM
GI50 [53]: 1.96 µM
TGI [53]: 4.97 µM
GI50 [54]: 1.73 µM
TGI [54]: 3.61 µM
GI50 [55]: 2.33 µM
TGI [55]: 4.96 µM
GI50 [56]: 2.09 µM
TGI [56]: 6.26 µM

O=C(Nc1ccc(Cl)c(Cl)c1)c1cccc(NC2=C(Cl)C(=O)N(Cc3ccccc3)C2=O)c1
GI50 [1]: 21.1 µM
TGI [1]: 91.1 µM
GI50 [2]: 45.8 µM
TGI [2]: > 100 µM
GI50 [3]: 35.7 µM
TGI [3]: > 100 µM
GI50 [4]: 48.8 µM
TGI [4]: > 100 µM
GI50 [5]: 48.4 µM
TGI [5]: > 100 µM
GI50 [6]: 20.6 µM
TGI [6]: > 100 µM
GI50 [7]: 22.5 µM
TGI [7]: 96.1 µM
GI50 [9]: 7.75 µM
TGI [9]: 38.2 µM
GI50 [10]: 69 µM
TGI [10]: > 100 µM
GI50 [11]: 59.6 µM
TGI [11]: > 100 µM
GI50 [12]: > 100 µM
TGI [12]: > 100 µM
GI50 [13]: 37.1 µM
TGI [13]: > 100 µM
GI50 [14]: > 100 µM
TGI [14]: > 100 µM
GI50 [15]: 45.4 µM
TGI [15]: > 100 µM
GI50 [16]: 52.9 µM
TGI [16]: > 100 µM
GI50 [17]: 23.5 µM
TGI [17]: 56.5 µM
GI50 [18]: 20.2 µM
TGI [18]: 64.5 µM
GI50 [19]: 24.4 µM
TGI [19]: 88.9 µM
GI50 [20]: 6.36 µM
TGI [20]: 78.5 µM
GI50 [21]: 11.5 µM
TGI [21]: > 100 µM
GI50 [22]: 48.3 µM
TGI [22]: > 100 µM
GI50 [23]: 8.37 µM
TGI [23]: 68 µM
GI50 [24]: 14.4 µM
TGI [24]: 44.7 µM
GI50 [25]: 34.9 µM
TGI [25]: > 100 µM
GI50 [26]: > 100 µM
TGI [26]: > 100 µM
GI50 [27]: 23.8 µM
TGI [27]: > 100 µM
GI50 [28]: 17.3 µM
TGI [28]: 87.1 µM
GI50 [29]: 31.6 µM
TGI [29]: 89.5 µM
GI50 [30]: 39.8 µM
TGI [30]: > 100 µM
GI50 [31]: 26.4 µM
TGI [31]: > 100 µM
GI50 [57]: 62.1 µM
TGI [57]: > 100 µM
GI50 [32]: 27.8 µM
TGI [32]: > 100 µM
GI50 [34]: 25.1 µM
TGI [34]: 65.6 µM
GI50 [35]: 61.2 µM
TGI [35]: > 100 µM
GI50 [58]: 49.7 µM
TGI [58]: > 100 µM
GI50 [36]: 27 µM
TGI [36]: > 100 µM
GI50 [37]: 37.1 µM
TGI [37]: > 100 µM
GI50 [38]: 53.9 µM
TGI [38]: > 100 µM
GI50 [39]: 27.2 µM
TGI [39]: > 100 µM
GI50 [40]: > 100 µM
TGI [40]: > 100 µM
GI50 [41]: > 100 µM
TGI [41]: > 100 µM
GI50 [42]: 24.6 µM
TGI [42]: > 100 µM
GI50 [43]: 36.6 µM
TGI [43]: > 100 µM
GI50 [44]: > 100 µM
TGI [44]: > 100 µM
GI50 [45]: 30.3 µM
TGI [45]: > 100 µM
GI50 [46]: 35.5 µM
TGI [46]: > 100 µM
GI50 [47]: 23.4 µM
TGI [47]: > 100 µM
GI50 [48]: > 100 µM
TGI [48]: > 100 µM
GI50 [49]: 66 µM
TGI [49]: > 100 µM
GI50 [50]: 42.9 µM
TGI [50]: > 100 µM
GI50 [51]: > 100 µM
TGI [51]: > 100 µM
GI50 [52]: 16.6 µM
TGI [52]: 45.5 µM
GI50 [53]: > 100 µM
TGI [53]: > 100 µM
GI50 [54]: 35.3 µM
TGI [54]: > 100 µM
GI50 [55]: 41.1 µM
TGI [55]: > 100 µM
GI50 [56]: 34.6 µM
TGI [56]: > 100 µM
